The target of experiment [1] is T1, human recombinant MC1 receptor (Homo sapiens, UniProt Q01726).
T1 construct: host or cells: CHO-K1
Put plainly: MC1R activation, cAMP HTRF assay in CHO-K1 cells. Format: cell-based. The procedure:
(§1) MCR-activation assays were performed by means of a cAMP HTRF (homogeneous time resolved fluorescence) assay for Gs-coupled receptors (cAMP Gs dynamic kit, Cisbio bioassays, 62AM4PEC). CHO-K1 cells expressing human recombinant MC1 receptor (EuroscreenFast, Gosselies, Belgium) (or MC2R, MC3R, MC4R, MC5R) were grown prior to the test in media without antibiotic. They were detached by gentle flushing with PBS-EDTA (5 mM EDTA), recovered by centrifugation, and resuspended in assay buffer (5 mM KCl, 1.25 mM MgSO4, 124 mM NaCl, 25 mM HEPES, 13.3 mM Glucose, 1.25 mM KH2PO4, 1.45 mM CaCl2, 0.5 g/L BSA, supplemented with 1 mM IBMX). Dose response curves were performed in parallel with the reference compounds. For agonist test (96-well), 12 µL of cells were mixed with 12 µL of the test compound diluted at increasing concentrations in assay buffer, and then incubated for 30 min at room temperature. After addition of the lysis buffer and 1 h incubation, fluorescence signal was measured, according to the manufacturer’s specifications, with the homogeneous time resolved fluorescence (HTRF) kit.

The target of experiment [2] is T2, MC2R (Homo sapiens, UniProt Q01718).
T2 construct: host or cells: CHO-K1
Nature of the experiment: MC2R activation, cAMP HTRF assay in CHO-K1 cells. It counts as cell-based. As to the method: as §1

Experiment [3] has as its target T3, MC4R (Homo sapiens, UniProt P32245).
T3 construct: host or cells: CHO-K1
Put plainly: MC4R activation, cAMP HTRF assay in CHO-K1 cells. It counts as cell-based. The settings on record: eight concentrations, 0.01 to 100,000 nM. As to the method:
as §1

Experiment [4] concerns the target T4, OP2R (Homo sapiens, UniProt P41145).
T4 construct: host or cells: CHO-K1 (membrane preparations)
Put plainly: OP2R (kappa opioid) activation, GTPγS scintillation proximity assay. Format: biochemical. Particulars: eight concentrations, 0.01 to 100,000 nM. As to the method:
(§2) Melatonin (MT1R and MT2R) and opioid receptor (OP1R, OP2R, and OP3R, corresponding to human delta, kappa, and mu opioid receptors) activation assays were performed by means of GTPγS scintillation proximity assays. For agonist testing, membrane preparations from CHO-K1 cells expressing each receptor (EuroscreenFast, Gosselies, Belgium) were mixed with guanosine diphosphate (GDP) (v/v). In parallel, GTPγ[^35S] (PerkinElmer, NEG030X, 0.1 nM final assay concentration) was mixed with PVT-WGA beads (Perkin Elmer, RPNQ001, 0.5 mg/well final assay density) (v/v) just before starting the reaction. The following reagents were then successively added in the wells of an Optiplate (Perkin Elmer): A total of 50 µL of test or reference ligand diluted in assay buffer, 10 µL of assay buffer (20 mM HEPES pH 7.4; 100–200 mM NaCl, 10 µg/mL saponin, MgCl2 at optimized concentration for the specific receptor, 0%–0.1% BSA), 20 µL of the membranes: GDP mix, and 20 µL of the GTPγ[^35S]: Beads mix. The plates were covered with a top seal, mixed on an orbital shaker for 2 min, and then incubated for 1 h at room temperature. Then the plates were centrifuged for 10 min at 2000 rpm, incubated at room temperature for 1 h, and counted for 1 min/well with a PerkinElmer TopCount™ reader.

Experiment [5] concerns the target T5, OP3R (Homo sapiens, UniProt P35372).
T5 construct: host or cells: CHO-K1 (membrane preparations)
Put plainly: OP3R (mu opioid) activation, GTPγS scintillation proximity assay. Format: biochemical. Particulars: eight concentrations, 0.01 to 100,000 nM. As to the method:
as §2

Experiment [6] has as its target human MCH2R (Homo sapiens, UniProt Q969V1). Put plainly: MCH2R activation, Aequorin assay. It counts as cell-based. Particulars: eight concentrations, 0.01 to 100,000 nM. The procedure:
(§3) Melanin-concentrating hormone receptor (MCHR), endothelin-1 receptor (ETBR), and serotonin-receptor (5-HT2AR) assays were performed by means of Aequorin assays. Recombinant cells co-expressing human MCH1R, MCH2R, ETBR, or 5-HT2AR and mitochondrial apoaequorin (MCH1R, MCH2R and 5-HT2AR cells also co-express recombinant Gα16 protein) (EuroscreenFast, Gosselies, Belgium), grown 18 h prior to the test in media without antibiotics, were detached by gentle flushing with PBS-EDTA (5 mM EDTA), recovered by centrifugation, and resuspended in assay buffer (DMEM/HAM’s F12 with HEPES + 0.1% BSA protease free). Cells were incubated under agitation at room temperature for at least 4 h with Coelenterazine h (Promega, X300X, 0.5 µM final concentration). Dose response curves with the reference compounds were performed before testing the compounds. For agonist testing, 50 µL of cell suspension was injected on 50 µL of test compound or reference agonist diluted in assay buffer and plated in a 96-well plate. The resulting emission of light was recorded using the Hamamatsu Functional Drug Screening System 6000 (FDSS 6000). […] Agonist activity of test compound was expressed as a percentage of the activity of the reference agonist at its EC100 concentration.

The target of experiment [7] is human 5-HT2AR (Homo sapiens, UniProt P28223). Nature of the experiment: 5-HT2AR activation, Aequorin assay. It counts as cell-based. The settings on record: eight concentrations, 0.01 to 100,000 nM. As to the method:
as §3

Experiment [8] deals with MITF. Put plainly: MITF protein expression in human skin ex vivo (immunohistochemistry). Format: cell-based. Particulars: topical 30, 100 and 200 µM, six days; p < 0.05. As to the method: (§4) Following declaration of Helsinki principles (DoH-Oct2013, World Medical Association, Ferney-Voltaire, France), human skin samples were obtained from elective plastic surgery after informed consent was obtained. For the two experiments shown in Figure 2, Figure 3 and Figure 4, we had one person with an individual topology angle (ITA°) of 18, and one person with an ITA° of 39 [69]. The skin samples were cut in pieces of 8 × 3 mm and cultured up to day 6. Skin samples were cultured in an air–liquid interface in a perforated ring of stainless steel in contact with culture medium (modified Williams’ E medium). The culture medium was renewed every three days (i.e., day 0–3). Compounds were added daily in DMSO at 4 µL volume. At day 6, the skin samples were fixed in formalin, embedded in paraplast, and cut at the microtome for histochemical staining and consequent image analysis. Six skin biopsies were used for each single treatment.
(§5) Twelve skin sections from the ex vivo melanogenesis experiment above were immunoassayed with the selected antibodies (TYR, Thermo Scientific #MS-800-P0 (Thermo Scientific, Waltham, MA, USA); TYRP-1, Covance #SIG-38150 (Covance Inc., Princeton, NJ, USA), MITF, Abcam #ab80651 (Abcam plc, Cambridge, UK). The number of positive cells within the epidermis was counted and the value was normalized upon the length of the basal lamina, thus obtaining a score. […]

The subject of experiment [9] is TYR. Put plainly: TYR protein expression in human skin ex vivo (immunohistochemistry). The settings on record: topical 30, 100 and 200 µM, six days; p = 0.06. Format: cell-based. The procedure:
as §4, §5

The subject of experiment [10] is TYRP-1. Put plainly: TYRP-1 protein expression in human skin ex vivo (immunohistochemistry). Particulars: topical 30, 100 and 200 µM, six days; p < 0.05. It counts as cell-based. As to the method:
as §4, §5

Where a SMILES comes first, the peptide text is derived from it. [ ]: non-standard residue; d: D form. The star is where a group is joined. Bz = O=C(c1ccccc1)*; NPr2 = CCCN(CCC)* A value given as a limit tells only on which side of the number the result lay.

T2 sequence (Q01718 whole entry): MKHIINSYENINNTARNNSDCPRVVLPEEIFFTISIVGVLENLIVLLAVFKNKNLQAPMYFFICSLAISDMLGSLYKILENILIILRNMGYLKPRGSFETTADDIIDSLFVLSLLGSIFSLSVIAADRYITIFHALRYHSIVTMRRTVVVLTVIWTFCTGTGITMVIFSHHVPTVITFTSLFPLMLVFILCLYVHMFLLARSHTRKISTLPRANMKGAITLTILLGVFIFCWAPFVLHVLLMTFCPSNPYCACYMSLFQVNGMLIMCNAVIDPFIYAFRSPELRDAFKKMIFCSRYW
T2 sequence (Q8TCY5 whole entry partner): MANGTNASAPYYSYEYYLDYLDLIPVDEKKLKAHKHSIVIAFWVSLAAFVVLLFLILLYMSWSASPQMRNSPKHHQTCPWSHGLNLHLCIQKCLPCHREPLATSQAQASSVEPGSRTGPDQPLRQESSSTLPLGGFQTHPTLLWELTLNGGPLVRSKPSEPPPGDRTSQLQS
Chain of human MCH2R (Q969V1 whole entry): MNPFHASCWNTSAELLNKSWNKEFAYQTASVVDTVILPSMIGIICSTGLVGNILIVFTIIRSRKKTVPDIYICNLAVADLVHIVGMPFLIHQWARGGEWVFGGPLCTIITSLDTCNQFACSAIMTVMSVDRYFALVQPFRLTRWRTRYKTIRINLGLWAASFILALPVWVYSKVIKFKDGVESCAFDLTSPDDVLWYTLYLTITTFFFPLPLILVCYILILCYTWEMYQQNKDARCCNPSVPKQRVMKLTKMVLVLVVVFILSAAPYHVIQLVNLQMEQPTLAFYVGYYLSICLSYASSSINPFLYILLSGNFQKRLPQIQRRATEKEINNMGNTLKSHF
T3 sequence (P32245 whole entry): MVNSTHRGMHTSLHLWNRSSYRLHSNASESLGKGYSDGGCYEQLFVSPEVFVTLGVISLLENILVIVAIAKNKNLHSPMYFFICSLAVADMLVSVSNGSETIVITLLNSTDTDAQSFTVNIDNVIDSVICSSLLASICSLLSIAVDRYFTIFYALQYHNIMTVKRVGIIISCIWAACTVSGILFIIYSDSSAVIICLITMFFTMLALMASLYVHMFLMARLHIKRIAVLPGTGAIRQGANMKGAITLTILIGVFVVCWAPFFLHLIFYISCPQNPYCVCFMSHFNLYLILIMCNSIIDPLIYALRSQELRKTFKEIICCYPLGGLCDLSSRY
T1 sequence (Q01726 whole entry): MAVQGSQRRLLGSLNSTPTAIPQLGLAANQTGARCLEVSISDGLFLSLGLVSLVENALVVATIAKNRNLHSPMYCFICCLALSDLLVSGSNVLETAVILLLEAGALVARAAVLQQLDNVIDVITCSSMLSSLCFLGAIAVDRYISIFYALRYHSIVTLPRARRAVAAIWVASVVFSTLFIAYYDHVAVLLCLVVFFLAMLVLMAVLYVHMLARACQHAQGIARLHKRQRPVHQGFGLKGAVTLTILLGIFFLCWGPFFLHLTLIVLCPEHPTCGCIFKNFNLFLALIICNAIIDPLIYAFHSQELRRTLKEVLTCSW
T4 sequence (P41145 whole entry): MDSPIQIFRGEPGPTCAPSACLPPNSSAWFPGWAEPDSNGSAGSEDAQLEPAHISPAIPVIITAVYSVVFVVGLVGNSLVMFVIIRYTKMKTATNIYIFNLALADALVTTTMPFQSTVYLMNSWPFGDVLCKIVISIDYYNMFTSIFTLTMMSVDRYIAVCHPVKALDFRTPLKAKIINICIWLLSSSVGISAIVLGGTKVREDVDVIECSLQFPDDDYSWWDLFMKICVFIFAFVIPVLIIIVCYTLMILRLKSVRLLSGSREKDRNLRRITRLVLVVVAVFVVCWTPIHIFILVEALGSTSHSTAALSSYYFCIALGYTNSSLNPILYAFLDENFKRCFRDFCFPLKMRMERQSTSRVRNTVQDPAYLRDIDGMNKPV
Chain of human 5-HT2AR (P28223 whole entry): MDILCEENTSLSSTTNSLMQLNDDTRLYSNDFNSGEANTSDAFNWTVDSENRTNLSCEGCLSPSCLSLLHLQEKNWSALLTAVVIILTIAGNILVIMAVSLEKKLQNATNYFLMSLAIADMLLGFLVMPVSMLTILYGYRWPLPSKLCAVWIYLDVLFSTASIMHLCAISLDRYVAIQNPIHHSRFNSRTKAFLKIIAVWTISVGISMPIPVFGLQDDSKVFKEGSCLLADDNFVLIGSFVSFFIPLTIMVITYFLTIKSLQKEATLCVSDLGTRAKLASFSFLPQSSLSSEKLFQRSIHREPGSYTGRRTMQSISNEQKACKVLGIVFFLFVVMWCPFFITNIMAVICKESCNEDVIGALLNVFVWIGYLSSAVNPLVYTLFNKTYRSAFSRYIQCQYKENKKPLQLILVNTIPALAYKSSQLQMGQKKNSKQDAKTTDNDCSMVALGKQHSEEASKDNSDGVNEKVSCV
T5 sequence (P35372 whole entry): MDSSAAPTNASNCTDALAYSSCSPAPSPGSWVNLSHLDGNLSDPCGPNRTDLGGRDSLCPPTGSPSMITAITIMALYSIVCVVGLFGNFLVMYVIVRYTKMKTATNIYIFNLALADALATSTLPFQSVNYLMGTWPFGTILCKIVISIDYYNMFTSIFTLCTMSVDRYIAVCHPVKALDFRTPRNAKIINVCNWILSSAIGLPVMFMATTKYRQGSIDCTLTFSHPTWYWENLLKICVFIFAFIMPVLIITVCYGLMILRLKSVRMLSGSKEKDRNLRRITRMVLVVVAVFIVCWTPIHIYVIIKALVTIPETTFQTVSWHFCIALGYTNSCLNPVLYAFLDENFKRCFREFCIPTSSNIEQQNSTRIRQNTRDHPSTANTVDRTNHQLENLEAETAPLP

On to `CCCN(CCC)C(=O)[C@@H](Cc1c[nH]c2ccccc12)NC(=O)[C@H](CCCNC(=N)N)NC(=O)[C@@H](Cc1ccccc1)NC(=O)[C@H](Cc1c[nH]cn1)NC(=O)CNC(=O)c1ccccc1` [Peptide 4] (Bz-GH[dF]R[dW]-NPr2), for which the EC50 in experiment [1] is 0.42 nM; in [2] (eight concentrations, 0.01 to 100,000 nM), > 100 µM; in experiment [3], 136 nM; in experiment [4], > 100 µM; in [5], > 100 µM; in experiment [6], > 100 µM. For the same compound, in experiment [7], the EC50 was > 100 µM. In addition, the “Activation of MC2R” value in experiment [2] (up to 100 µM) was “no significant activation”. In [8], the “Maximal induction of MITF protein expression vs vehicle” value was determined as 79%. Further, in experiment [9], the “Maximal induction of TYR protein expression vs vehicle” value came out at 44%. Moreover, in [10], the “Maximal induction of TYRP-1 protein expression vs vehicle” value was 72%.

Values taken from article PMC6940745 (International Journal of Molecular Sciences, 2019).
